The values that follow come from patent publication US4245100A, “Sydnonimine N-acyl derivatives and method for preparing same” (Vsesojuzny nauchno-issledovatelsky khimikofarmatsevtichesky …, priority 1977, dated 1981).

The ED50 is the dose at which the effect has come halfway, by size or by number of responders.

The subject of data set [1] is central nervous system. Put plainly: Stereotypic behavior reactions in rats. It counts as in vivo, white rat males. As to conditions: Rattus norvegicus, 1 h, dose causing stereotypic behavior reactions in 50% of rats one hour after administration, Litchfield and Wilkoxson method, read-out: ED50 (stereotypy). On the procedure:
(§1) Psychostimulating activity of the compounds according to the present invention has been tested in experiments with mice and rats.
(§2) The experiments are performed with white male mice with a weight of 18-20 g and with white rat males with a weight of 120 to 140 g with the account of parameters characterising the influence of the compounds according to the present invention on the central nervous system as well as toxicity. Following this objective, there have been studied:
(2) capability of the compounds of inducing sterotypic behavior reactions;
(§3) To quantitatively evaluate the central stimulant activity of the compounds in the tests on mice the values of ED200 (locomotion) are determined, i.e. doses in which the compounds cause a two-fold potentiation of locomotory activity of the animals; in the tests performed with rats there are determined values of ED50 (stereotypy), i.e. doses in which the compounds, one hour after their administration, cause, in 50% of the test rats, stereotypic behavior reactions (ED50 doses are calculated by the Litchfield and Wilkoxsons method).
(§4) The compounds according to the present invention are sparingly soluble in water. They were administered to the animals in the form of a suspension prepared with the use of a 1% solution of carboxymethylcellulose with the addition of Tween-80® as an emulsifying agent. Since molecular weights of the test compounds differ from each other, their doses are calculated in mcM/kg.
(§5) In a special series of experiments there has been made a quantitative comparison of the central stimulant effect of the compounds according to the present invention as determined by tests of locomotory activity with mice and stereotypy with rats.

Data set [2] deals with central nervous system. Put plainly: Locomotory activity of mice (registered with instrument "Animex"). The class given is in vivo, white male mice. The settings on record: for ED200: Mus musculus, dose causing two-fold potentiation of locomotory activity, read-out: ED200 (locomotion). As for the experimental part: as §1, §2
(1) effect of the compounds on the locomotory activity of the animals (locomotory activity is registered using the instrument "Animex");
as §3, §4, §5

Data set [3] concerns central nervous system. The settings on record: prior art compound; cited from earlier work.
Another data set is described as follows: Solubility. The class given is physicochemical.
The subject of the next data set is mice. The settings on record: statement on known psychostimulant compounds; cited from earlier work.

On to `CC(Cc1ccccc1)[n+]1cc([N-]C(=O)Nc2ccc(Cl)cc2)on1` (racemic) [Example 4, dl-N-para-chlorophenyl carbamoyl-3-(α-methyl-β-phenylethyl) sydnonimine], for which, in the data set on central nervous system [1], the ED50 stood at 20 µmol/kg. In addition, the ED200 with central nervous system [2] worked out at 18.2 µmol/kg.
Consider `Cc1cccc(NC(=O)[N-]c2c[n+](C(C)Cc3ccccc3)no2)c1` (racemic) [X is NH--C6 H4 --CH3 --meta], for which the ED50 with central nervous system [1] came out at 39.9 µmol/kg. In addition, the ED200 with central nervous system [2] came out at 32.3 µmol/kg.
For `CC(Cc1ccccc1)[n+]1cc([N-]C(=O)Nc2ccccc2)on1` (racemic) [dl-N-phenylcarbamoyl-3-(α-methyl-β-phenylethyl) sydnonimine, reference compound], in the data set with central nervous system [3], the “psychostimulant activity (known compound)” value is “possesses a psychostimulant activity”. The 50% effective dose (ED50) in the data set on central nervous system [1] was 107 µmol/kg. Also, the ED200 with central nervous system [2] was determined as 72.6 µmol/kg.
Regarding `C[C@H](Cc1ccccc1)[n+]1cc([N-]C(=O)Nc2ccccc2)on1` [Example 3, l-3-(α-methyl-β-phenylethyl)-N-phenylcarbamoylsydnonimine], in the data set “Solubility” (acetone), the solubility in acetone result is reported as “soluble”. Moreover, in the data set “Solubility” (chloroform), the solubility in chloroform result is on record as “soluble”. For the same molecule, the solubility in fats result in the data set “Solubility” (fats) is reported as “soluble”. Also, in “Solubility” (water), the solubility in water result is reported as “substantially insoluble in water”. In addition, the “duration for which maximum locomotory activity is maintained” value in the data set with central nervous system [2] (dose of 40 mcM/kg) was in the range of 1 to 1.5 h.
As to `CC(N)Cc1ccccc1` (centres unmarked) [amphetamine], the “phenomenon of "group toxicity" (known psychostimulant compounds)” value in the data set with mice is “characteristic”.
Take `C[C@H](N)Cc1ccccc1` [dextramphetamine]: the “phenomenon of "group toxicity" (known psychostimulant compounds)” value in the data set on mice is recorded as “characteristic”.
